Assay results taken from patent US9505762B2, “Purine derivatives as CB2 receptor agonists” (Hoffmann-La Roche Inc., priority 2013, dated 2016).

Assays:
[1] = target: human CB2 receptors (Homo sapiens (Human), UniProt P34972); assay: functional cAMP assay, CB2; type: cell-based; details: CHO cells expressing human CB2
[2] = target: human CB1 receptors (Homo sapiens (Human), UniProt P21554); assay: functional cAMP assay, CB1; type: cell-based; details: CHO cells expressing human CB1
human CB1 receptors, sequence (P21554 whole entry): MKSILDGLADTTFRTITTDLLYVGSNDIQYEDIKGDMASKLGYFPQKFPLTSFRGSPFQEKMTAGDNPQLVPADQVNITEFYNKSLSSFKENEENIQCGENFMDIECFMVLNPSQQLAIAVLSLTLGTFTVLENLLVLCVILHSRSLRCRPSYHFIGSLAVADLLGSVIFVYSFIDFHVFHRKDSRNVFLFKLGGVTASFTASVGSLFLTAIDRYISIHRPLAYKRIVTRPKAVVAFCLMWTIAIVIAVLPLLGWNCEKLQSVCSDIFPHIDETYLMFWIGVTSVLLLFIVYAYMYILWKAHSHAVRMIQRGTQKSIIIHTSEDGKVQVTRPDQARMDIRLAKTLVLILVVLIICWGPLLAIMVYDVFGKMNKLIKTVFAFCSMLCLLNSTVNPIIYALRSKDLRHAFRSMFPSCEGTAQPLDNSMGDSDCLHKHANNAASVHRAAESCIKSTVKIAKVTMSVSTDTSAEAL

human CB2 receptors, sequence (P34972 whole entry): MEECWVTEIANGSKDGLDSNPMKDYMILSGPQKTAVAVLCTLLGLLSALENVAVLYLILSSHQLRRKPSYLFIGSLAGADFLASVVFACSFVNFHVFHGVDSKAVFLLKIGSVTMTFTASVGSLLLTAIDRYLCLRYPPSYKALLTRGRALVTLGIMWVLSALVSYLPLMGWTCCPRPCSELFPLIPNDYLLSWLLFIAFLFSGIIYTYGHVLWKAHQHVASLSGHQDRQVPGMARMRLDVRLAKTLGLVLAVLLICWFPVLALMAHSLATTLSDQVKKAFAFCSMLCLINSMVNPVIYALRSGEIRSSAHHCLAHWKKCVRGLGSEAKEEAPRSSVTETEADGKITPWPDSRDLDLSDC

Compound	EC50 [1]	EC50 [2]
CC(C)(C)c1nc(N2CC[C@H](O)C2)c2ncn(Cc3nnnn3CC3CC3)c2n1 [Example 164, (3S)-1-[2-tert-butyl-9-[[1-(cyclopropylmethyl)tetrazol-5-yl]methyl]purin-6-yl]pyrrolidin-3-ol]	0.0207 µM	> 10 µM
CC(C)(C)c1nc(N2CC(O)(C(F)(F)F)C2)c2ncn(Cc3ncccc3Cl)c2n1 [Example 167, 1-[2-tert-butyl-9-[(3-chloropyridin-2-yl)methyl]purin-6-yl]-3-(trifluoromethyl)azetidin-3-ol]	0.035 µM	> 10 µM
CC(C)(C)c1nc(N2CCC3(C2)CC3(F)F)c2ncn(Cc3ncccc3Cl)c2n1 (centres unmarked) [Example 168, 2-tert-butyl-9-[(3-chloropyridin-2-yl)methyl]-6-(2,2-difluoro-5-azaspiro[2.4]heptan-5-yl)purine]	0.0324 µM	> 10 µM
CC1(O)CN(c2nc(C(C)(C)C)nc3c2ncn3Cc2ncccc2Cl)C1 [Example 169, 1-[2-tert-butyl-9-[(3-chloropyridin-2-yl)methyl]purin-6-yl]-3-methylazetidin-3-ol]	0.0514 µM	> 10 µM
